Laboratory results from paper PMC10635324, “A Multi-Site Phase I Trial of Veliparib with Standard Radiation and Temozolomide in Patients with Newly Diagnosed Glioblastoma Multiforme (GBM)” (Research Square, 2023).
Values joined by “and” are separate entries in the source; they are usually repeats but may differ in a detail not shown here. Equal values may be shown once. Read-outs that look alike come from different tables or passages of the source.

Tests used:
[1] = set-up: method as in PMID 19364967; conditions: phase 0 clinical trial, oral; cited from earlier work
[2] = set-up: method as in PMID 17473206; conditions: preclinical, oral; cited from earlier work
[3] = set-up: method as in PMID 17473206; conditions: rodent model; cited from earlier work
[4] = test system: patients with newly diagnosed glioblastoma; experiment: Survival from the date of study enrollment; format: in vivo; conditions: all patients on study
Source text: All subjects were followed until death, and survival from the date of study enrollment was reported to evaluate for any unexpected adverse results.

[5] = set-up: method as in PMID 26202595; conditions: cited from earlier work
brain metastasis = test system: brain metastasis; set-up: method as in PMID 25682091; conditions: Veliparib 40 mg BID or 200 mg BID added to whole brain radiotherapy; cited from earlier work
[6] = test system: patients with newly diagnosed glioblastoma; experiment: Phase I dose-limiting toxicities / adverse events (CTCAE v.3.0); format: in vivo
Method: This was an open-label, multi-center, phase 1 study. The maximum tolerated dose (MTD) was a dose producing a dose-limiting-toxicity (DLT) rate at 33% or less. A modified 3 + 3 design with 6 patients per dose cohort was used due to 10 weeks long safety evaluation period that potentially 40–50% patient might drop-out study for early disease progression.
The initial safety group of up to 6 patients included patients who had recently completed standard concurrent RT/TMZ) were then treated with one cycle of low-dose veliparib 10 mg BID along with 6 weeks of once-a day (QD) temozolomide 75 mg/m2/d (no RT). Once this one cycle was complete, patients were permitted to transition to monthly cycles of standard adjuvant temozolomide 150–200 mg/m2/d for five consecutive days each month.
If safety was confirmed, then the phase I component including radiotherapy would proceed enrolling cohorts of 6 patients to pre-specified escalating dose levels of daily veliparib, ranging from 10 mg BID to 100 mg twice-daily BID daily along with TMZ (75 mg/m^2/d) for 6 weeks in conjunction with standard radiation 60 Gy in 30 fractions.The protocol specified that if excessive toxicity occurred, de-escalation could be introduced by joint decision of study PI, sponsor, and ABTC leadership to a choice of veliparib 10 mg daily, 10 mg every other day or 10 mg BID 1 week on/1 week off for the 6-week period.
DLTs were events considered possible or probably related to veliparib alone, veliparibib/TMZ or Veliparib/RT per CTCAE v.3.0 including: ≥ grade 3 nonhematological toxicities not resolving with anticonvulsants or steroid treatment excluding grade 3 nausea and dermatitis. Hematologic toxicity was considered dose limiting if there was 1) ANC ≤ 500/mm^3; 2) Platelets ≤ 25,000/mm^3; 3) Grade 3 toxicity that prevents administration of > 75% of the planned temozolomide doses for the first cycle; 4) interruption of treatment for > 14 days. All subjects were monitored for safety throughout the trial.

[7] = test system: patients with MGMT methylation; set-up: method as in doi:10.1200/JCO.2022.40.16_suppl.2001; conditions: cited from earlier work
[8] = Plasma pharmacokinetics of veliparib, LC-MS/MS, noncompartmental analysis; format: in vivo, patients; conditions: for Cmax: human, plasma, oral, 10 mg, read-out: Cmax, maximum drug concentration in plasma
Method: Patients received a single dose of veliparib one day prior to starting combination therapy with TMZ or RT/TMZ for PK testing after the first single dose as described below. Patients without disease progression, as evaluated by MRI 10-weeks after the initiation of veliparib therapy, received up to four maintenance cycles of the same dose of veliparib in the initial safety cohort or six cycles in phase I veliparib/RT/TMZ cohort. Veliparib was to be given BID for 7 days and TMZ 150–200 mg/m^2 QD for 5 days, repeated every 28 days, with an imaging evaluation after completing every second maintenance cycle.
Plasma samples were collected to define plasma concentration-time profiles. Samples were collected shortly before dosing and at 0.25, 0.5, 1, 2, 3, 4, 6, 8, and 24 hours after the first dose of six weeks of TMZ and again after achieving steady-state conditions on any day of week 3 of the six weeks (omitting the 24 hour specimen). Samples were analyzed by liquid chromatography-mass spectrometry (LC-MS)/mass spectrometry (MS), Agilent 410B Triple Quadrupole LC/MS system (Agilent Technologies, Inc., Santa Clara, CA).
The plasma concentration-time data for veliparib was analyzed by noncompartmental methods using model 200 for extravascular input in WinNonlin Professional version 5.0.1. Samples with concentrations below the LLQ of the assay were excluded. The maximum concentration of the drug achieved in plasma (Cmax) and the time that it occurred (tmax) were based upon the observed values following a given dose. Area under the plasma concentration-time curves for 8 h (AUC8) and 24 h (AUC24) after dosing were estimated using the log- linear trapezoidal algorithm. Routines provided in the Data Analysis ToolPak of Microsoft Excel 2003 (11.8231.8221) SP3, Professional Edition (Redmond, WA), were used for the descriptive statistics and statistical tests. Arithmetic averages and standard deviations were calculated for the time of the maximum drug concentration in plasma (tmax). Geometric means were calculated for all other pharmacokinetic variables. The jackknife technique was used to estimate the standard deviation of geometric means.

[9] = set-up: method as in PMID 28243955, PMID 28497258, PMID 30456480, PMID 27503200, PMID 21795476; conditions: cited from earlier work
[10] = Single dose 10 mg Veliparib, n=16
[11] = Steady-state 10 mg BID Veliparib, week 3, n=18

For `C[C@]1(c2nc3c(C(N)=O)cccc3[nH]2)CCCN1` [Veliparib], the Bioavailability [1] is given as “good bioavailability”, the Bioavailability [2] is given as “good bioavailability” and the “Crossing of the blood brain barrier” value [3] is given as “cross the blood brain barrier”. For the same compound, the “Survival at 2 years” value [4] was 25%, the Median survival ([4]; 95%CI: 8–16 months) was 13 months and the “Effect of veliparib coadministration on TMZ plasma exposures” value [5] was “does not affect”. For the same compound, the “Adverse events compared with placebo” value (brain metastasis) was “no increase in adverse events”, the “Patients with platelets <25,000/mm^3” value ([6]; 12 patients, veliparib 10 mg BID + TMZ + RT) was 3 patients and the Anemia ([6]; human, in vivo, 6 weeks) was 1 (4.2) n (%). The “Any adverse event (dose limiting, possibly related)” value ([6]; human, in vivo, 6 weeks) was 11 (45.8) n (%), the Febrile neutropenia ([6]; human, in vivo, 6 weeks) was 1 (4.2) n (%) and the Neutropenia ([6]; human, in vivo, 6 weeks) was 2 (8.3) n (%). For the same compound, the Pancytopenia ([6]; human, in vivo, 6 weeks) was 1 (4.2) n (%), the “Subjects with ≥ 1 AE (Blood and Lymphatic Systemic Disorders)” value ([6]; human, in vivo, 6 weeks) was 9 (37.5) n (%) and the Thrombocytopenia ([6]; human, in vivo, 6 weeks) was 7 (29.2) n (%). For the same compound, the “Number of dose limiting toxicities (DLT)” value ([6]; in vivo) was “one”, the “Tolerable dose (maximum tolerated dose)” value ([6]; with TMZ and six weeks of standard radiation, even with 50% dose reductions) was “a tolerable dose of veliparib could not be found” and the “Hematologic toxicity (neutropenia, thrombocytopenia, and anemia)” value ([7]; veliparib 40 mg BID each day of standard adjuvant TMZ (days 1–5) after concurrent RT/TMZ) was “increased but acceptable hematologic toxicity”. The Survival benefit ([7]; veliparib 40 mg BID each day of standard adjuvant TMZ (days 1–5)) was “without survival benefit”, the Accumulation for BID dosing ([8]; BID dosing) was 56% and the “CL/F, apparent oral clearance” value ([8]; Single (initial) dose 10 mg Veliparib, n=16) was 27.0 ± 9.0 L/h and 27.0 ± 9.2 L/h. The “t1/2,z apparent terminal phase half-life” value [8, 10] was 5.8 ± 0.9 h, the “Cmin, minimum drug concentration in plasma” value ([8]; Single dose 10 mg Veliparib, n=16, geometric mean ± SD) was 2.5 ± 1.3 ng/mL and the “CL/F, apparent oral clearance” value ([8]; Steady-state 10 mg BID Veliparib, n=18) was 23.5 ± 10.4 L/h. For the same compound, the “Cmin, minimum drug concentration in plasma” value [8, 11] was 18.4 ± 10.4 ng/mL, the Accumulation ([8]; Steady-state 10 mg BID dosing) was 56% and the Cmax [8, 10] was 50.3 ± 19 ng/mL. The Cmax [8, 11] was 66.1 ± 28.7 ng/mL, the “Peak and trough concentrations throughout six weeks of daily dosing” value ([8]; veliparib 20 mg BID concurrently with daily temozolomide (so in the source)) was “remains stable” and the “Effect of TMZ co-administration on the clearance of veliparib” value [9] was “no effect”.
